Results published in patent US12234299B2, “Peptides for inducing bacteriocin synthesis and methods to identify and/or select and/or optimize the same” (SYNGULON S.A., priority 2018, dated 2025).

Assays:
[1] = system: slvX promoter (PslvX); assay: Luciferase (luxAB) promoter activity of PslvX with synthetic peptides; assay type: cell-based, Streptococcus salivarius HSISS4
Description: (§1) Overnight precultures were diluted at a final OD600 of 0.05. A volume of 300 μl of culture samples was incubated in the wells of a sterile covered white microplate with a transparent bottom (Greiner, Alphen a/d Rijn, The Netherlands) for 75 min at 37° C. and then supplemented with synthetic peptides (1 μM, except if otherwise stated) or DMSO, and xylose where required. Growth (OD600) and luciferase (Lux) activity (expressed in relative light units) was monitored at 10 min intervals during 24 h in a multi-wells plate reader (Hidex Sense, Hidex, Turku, Finland) as previously described (Fontaine et al., 2013).

[2] = system: S. salivarius producer strains; indicator strain Lactococcus lactis IL1403; assay: Bacteriocin detection assay (spot-on lawn, multilayer); assay type: cell-based, Streptococcus salivarius; details: FIG. 5B
Description: The spot-on lawn (multilayer) detection method was performed as followed: 10 μl of overnight cultures of producer strains were diluted in fresh M17G medium and grown to reach mid-log phase (OD600=˜0.5). In parallel, we casted plates with a bottom feeding layer (M17G 1.5% agar) supplemented with a synthetic peptide where required. Next, we mixed 100 μl of an overnight culture of Lactococcus lactis IL1403 (indicator strain) in pre-warmed soft M17G medium (0.3% agar) and casted it as a top layer. Finally, we incubated mid-log phase cultures for 30 minutes with the corresponding synthetic peptides and spotted 3 μl of the producer strains on the top layer. Plates were incubated overnight before analysis of the inhibition zones surrounding the producer colonies.

[3] = system: ScuR; assay: Mobility shift assay (EMSA) of promoter probes with purified ScuR and synthetic peptide; assay type: binding, Streptococcus salivarius; details: FIG. 4A
Description: All double-stranded DNA fragments (30 or 40 bp) were obtained from annealing of single-stranded Cy3-labelled (at 5′ end) and unlabeled oligonucleotides. Typically, a gel shift reaction (20 μl) was performed in a binding buffer (20 mM Tris-HCl pH 8.0, 150 mM NaCl, 1 mM EDTA, 1 mM DTT, 10% glycerol, 1 mg ml-1 BSA) and contained 150 ng labelled probe and […] StrepTag proteins. When necessary, […] of ComS peptides (unless otherwise stated) are added. The reaction is incubated at 37° C. for 10 min prior to loading of the samples on a native TBE 5% gel. The gel is next subjected to 80 V for approximately 1 h in TBE buffer. DNA complexes were detected by fluorescence on the Ettan DIGE Imager with bandpass excitation filters (nm): 540/25 (Cy3) or 635/30 (Cy5) and bandpass emission filters: 595/25 (Cy3) or 680/30 (Cy5) (GE Healthcare, Waukesha, WI).
The PCR-amplified scuR-StrepTag and gene sarF-StrepTag were cloned into the pBAD-comR-ST vector (see supplemental information). The ComR-StrepTag, ScuR-StrepTag and SarF-StrepTag recombinant proteins were overproduced in E. coli and purified as previously described (Fontaine et al., 2013) in standard native conditions on Strep-Tactin agarose beads (IBA).

[4] = system: sptA promoter (PsptA), ScuR/SarF system; assay: Luciferase (luxAB) promoter activity of PsptA with exogenous synthetic peptides; assay type: cell-based, Streptococcus salivarius HSISS4
Description: as §1

[5] = system: S. salivarius HSISS4 derivatives; assay: Competence development (natural transformation frequency); assay type: cell-based, Streptococcus salivarius
Description: To induce competence, overnight CDMG precultures were diluted at a final OD600 of 0.05 in 300 μl (10 ml concerning the randomized peptide screen) of fresh CDMG and incubated 75 min at 37° C. Then, we added the pheromone sComS as well as DNA (overlapping PCRs or plasmids) and let the cells recover for 3 h at 37° C. before plating on M17G agar supplemented with antibiotics where required. Null-mutants were constructed by exchanging (double homologous recombination) the coding sequences (CDS) of target genes (sequence between start and stop codons) for either chloramphenicol or erythromycin resistance cassette. If stated, mutants were cleaned for the lox site-flanked resistance cassette, as previously described (Fontaine et al. Mol Microbiol 2010; 87:1113-1132). In case of deletion of multiple CDSs, the region between the start codon of the first CDS and the stop codon of the last CDS was deleted. Integration of the antibiotic resistance cassette at the right location was subsequently checked by PCR. The promoters of sptA genes was fused to the luxAB reporter genes and inserted with a chloramphenicol resistance cassette at the permissive tRNA threonine locus (HSISS4_r00061) by double homologous recombination. In case of ΔscuR and ΔsarF in-frame deletion, we used the two-step selection/counter-selection strategy previously described (Mignolet et al. Cell Rep 2018, 22:1627-1638). We transformed the wild-type strain with an overlapping PCR product composed of 4 fragments: (I) the upstream region of scuR or sarF genes, (II) the downstream region of scuR or sarF genes, (III) a cassette that includes the erythromycin resistance gene (erm) and a gene encoding the orotate transporter oroP, and finally (IV) the downstream region of scuR or sarF genes. We selected a first event of double recombination on medium supplemented with erythromycin. Next, we selected an intramolecular recombination between region (I) and (IV) that excises the erm-oroP cassette by growing cells on M17G supplemented with the toxic 5-fluoro-orotic acid (5-FOA) compound. In […] of oroP, 5-FOA is not able to cross the membrane and penetrate the cytoplasm where it is deleteriously incorporated in the nucleotide metabolic pathway (Overkamp et al., 2013). At final, we engineered an in-frame deletion mutant of scuR or sarF in which the first seven codons were fused to the last six codons without any cassette scar (see below for detailed cloning method).

[6] = system: comS promoter (PcomS); assay: Luciferase (luxAB) promoter activity of PcomS with synthetic peptides; assay type: cell-based, Streptococcus salivarius HSISS4
Description: as §1

[7] = system: comX promoter (PcomX) and ComX-dependent promoters; assay: Luciferase (luxAB) activity of PcomX and ComX-dependent late competence promoters; assay type: cell-based, Streptococcus salivarius HSISS4; details: 1 μM; FIG. 9
Description: as §1

[8] = WT background, dose response FIG. 3D
[9] = ΔscuR strain (SarF only), FIG. 3D

sBI7: synthetic peptide: last 8 amino acids of the clone BI7 peptide MIAILPFWLILG (sBI7)
peptide concentration to which PslvX is responsive [1, 8]: less than 1 nM
PslvX activity upon sBI7 induction in ΔscuR [1, 9]: no activity in ΔscuR
halo of inhibition around producer strain ([2]; WT strain, sBI7 concentration ranging from 1 nM to 1 μM, indicator L. lactis): small halo of inhibition
halo of inhibition in mutant producer strains ([2]; single ΔscuR, double ΔscuR-sarF or Δslv5 strains): eradicated
ScuR·sBI7 affinity for PcomS and PslvX in comparison to sComS-bound ComR [3]: appears weaker with a less stable complex
peptide concentration from which ScuR shifts the PsptA probe ([3]; ScuR 4 μM, peptide 2:2 dilutions from 20 μM): ≥ 0.08 nM
ScuR affinity for PcomS probe ([3]; with sBI7): weakest affinity
ScuR affinity for PsptA probe ([3]; with sBI7): strongest one
amplitude of PsptA response compared with PslvX and PcomS ([4]; WT background, FIG. 3D): highest amplitude
peptide concentration to which PsptA is responsive [4, 8]: less than 1 nM
activity of all promoters (PsptA, PslvX, PcomS) in ΔsarF compared to WT ([4]; ΔsarF strain, FIG. 3D): slightly up compared to the WT
SarF-mediated PsptA response ([4]; ΔscuR strain, FIG. 3D): able to induce the SarF-mediated PsptA response
induction of sptA, comS and slvX promoters in ΔscuR-sarF double mutant ([4]; ΔscuR-sarF, FIG. 3F): utterly erased
support of natural transformation ([5]; Table 6): ineffective to support natural transformation
Competence development (transformation frequency) ([5]; Wild-type strain, ratio of transformants (chloramphenicol-resistant CFU) to total CFU count per 0.1 ug of linear DNA): ND (ND: not detected (<1.0E−08))
Competence development (transformation frequency) ([5]; ΔsarF strain, ratio of transformants to total CFU count per 0.1 ug of linear DNA): ND (ND: not detected (<1.0E−08))
Competence development (transformation frequency) ([5]; ΔscuR strain, ratio of transformants to total CFU count per 0.1 ug of linear DNA): ND (ND: not detected (<1.0E−08))
amplitude of PcomS response compared with PsptA and PslvX ([6]; WT background, FIG. 3D): lowest
peptide concentration to which PcomS is responsive [6, 8]: less than 1 nM
PcomS activity upon sBI7 induction in ΔscuR [6, 9]: no activity in ΔscuR
activation of comX and late competence genes under direct ComX control [7]: cannot activate
